Test results reported in patent US6893830B1, “Method of screening oxysterol activation of LXRα” (The Board of Regents of the University of Texas System, priority 1996, dated 2005).

Experiments:
[1] = test system: other known nuclear receptors (RXRα, RARα, TRβ, VDR, PPARα, FXR, ER, GR, usp/EcR); test: Receptor-specific transactivation: cotransfection of other nuclear receptors with their cognate response element reporters in CV-1 cells; assay type: cell-based, human; details: 6 μM 22(R)-hydroxycholesterol
Experimental: TK-DR-4-LUC; human vitamin D receptor (VDR)^24, TK-DR^3-LUC; human peroxisome proliferator-activated receptor-α (PPARα)^25, TK-PPREx3-LUC; human farnesol activated receptor (FXR)^11, ΔMTV-EcREx5-LUC; human estrogen receptor (ER)^26, ΔMTV-ERE-LUC; human glucocorticoid receptor (GR)^27, MTV-LUC; Drosophila ecdysone receptor (usp/EcR)^15, ΔMTV-EcREx5-LUC. Cells were treated with ETOH or 6 μM 22(R)-hydroxycholesterol. […] FIG. 3(A)-3(D) Activation of LXRα by 22(R)-hydroxycholesterol in Drosophila (SL-2) cells. […] CV-1 cells were cotransfected with TK-LXREx3-LUC reporter plasmid and expression plasmids containing the indicated receptor combinations, and then treated with the indicated ligands. […] CV-1 cells cotransfected with the LXRα expression plasmid and TK-LXREx3-LUC reporter were treated with 9-cis RA, 22(R)-hydroxycholesterol, or both, at the indicated concentrations.
In FIG. 3B. Drosophila SL-2 cells were transfected and assayed as previously described^5 in 6-well plates with […] A5C-hLXRα or A5C-hLXRα, 0.5 mg ADH-LXREx2-LUC, 0.2 mg A5C-βGAL and […] PGEM4 carrier DNA per well.

[2] = target: T1, LXR-TR chimera (LXRα N-terminus and DNA binding domain fused to ligand binding domain of TRβ) (Homo sapiens, UniProt P10828+Q13133); details: CV-1 cells, TK-LXREx3-LUC
T1 sequence (Q13133+P10828 with tags, fused parts or gaps): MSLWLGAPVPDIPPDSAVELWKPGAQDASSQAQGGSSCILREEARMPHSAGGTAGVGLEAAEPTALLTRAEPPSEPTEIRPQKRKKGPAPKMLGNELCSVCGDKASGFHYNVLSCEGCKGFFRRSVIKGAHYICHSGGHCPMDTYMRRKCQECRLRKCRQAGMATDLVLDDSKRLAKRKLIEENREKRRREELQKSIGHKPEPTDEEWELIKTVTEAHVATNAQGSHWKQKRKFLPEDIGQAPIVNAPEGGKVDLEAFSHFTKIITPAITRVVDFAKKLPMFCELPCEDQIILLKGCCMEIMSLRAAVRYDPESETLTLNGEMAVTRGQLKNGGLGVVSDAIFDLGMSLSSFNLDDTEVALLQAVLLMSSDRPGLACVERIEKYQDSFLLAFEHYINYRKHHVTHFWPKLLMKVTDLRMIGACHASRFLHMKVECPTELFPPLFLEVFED

SMILES: CC(C)CC[C@@H](O)[C@@H](C)[C@H]1CC[C@H]2[C@@H]3CC=C4C[C@@H](O)CC[C@]4(C)[C@H]3CC[C@]12C [22(R)-hydroxycholesterol]
- cross-reactivity with other known nuclear receptors (transactivation) [1]: no cross-reactivity
- responsiveness of LXR-TR chimera [2]: loses responsiveness
